Laboratory results: ChEMBL document CHEMBL5291721, “A preclinical secondary pharmacology resource illuminates target-adverse drug reaction associations of marketed drugs” (Nat Commun, 2023)

Experiments:
[1] = molecular target: Beta-2 adrenergic receptor (Homo sapiens, UniProt P07550)
[2] = molecular target: T1, Muscarinic acetylcholine receptor M2 (Homo sapiens, UniProt P08172); type: functional, cell-based
T1 sequence (P08172 whole entry): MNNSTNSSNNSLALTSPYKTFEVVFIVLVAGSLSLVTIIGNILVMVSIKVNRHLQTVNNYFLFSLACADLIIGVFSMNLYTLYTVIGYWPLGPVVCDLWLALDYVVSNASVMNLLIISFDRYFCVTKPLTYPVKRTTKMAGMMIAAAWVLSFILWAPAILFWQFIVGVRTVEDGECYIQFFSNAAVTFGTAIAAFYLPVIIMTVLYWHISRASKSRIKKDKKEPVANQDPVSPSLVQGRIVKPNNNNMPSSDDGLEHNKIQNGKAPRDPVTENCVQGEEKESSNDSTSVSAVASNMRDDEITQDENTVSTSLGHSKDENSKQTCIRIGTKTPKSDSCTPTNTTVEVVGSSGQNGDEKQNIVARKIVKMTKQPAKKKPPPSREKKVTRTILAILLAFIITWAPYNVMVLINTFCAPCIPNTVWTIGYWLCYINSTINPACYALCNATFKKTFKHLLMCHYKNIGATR

[3] = molecular target: Delta-type opioid receptor (Homo sapiens, UniProt P41143)
[4] = molecular target: T2, Prostaglandin G/H synthase 1 (Rattus norvegicus, UniProt Q63921); type: functional
T2 sequence (Q63921 whole entry): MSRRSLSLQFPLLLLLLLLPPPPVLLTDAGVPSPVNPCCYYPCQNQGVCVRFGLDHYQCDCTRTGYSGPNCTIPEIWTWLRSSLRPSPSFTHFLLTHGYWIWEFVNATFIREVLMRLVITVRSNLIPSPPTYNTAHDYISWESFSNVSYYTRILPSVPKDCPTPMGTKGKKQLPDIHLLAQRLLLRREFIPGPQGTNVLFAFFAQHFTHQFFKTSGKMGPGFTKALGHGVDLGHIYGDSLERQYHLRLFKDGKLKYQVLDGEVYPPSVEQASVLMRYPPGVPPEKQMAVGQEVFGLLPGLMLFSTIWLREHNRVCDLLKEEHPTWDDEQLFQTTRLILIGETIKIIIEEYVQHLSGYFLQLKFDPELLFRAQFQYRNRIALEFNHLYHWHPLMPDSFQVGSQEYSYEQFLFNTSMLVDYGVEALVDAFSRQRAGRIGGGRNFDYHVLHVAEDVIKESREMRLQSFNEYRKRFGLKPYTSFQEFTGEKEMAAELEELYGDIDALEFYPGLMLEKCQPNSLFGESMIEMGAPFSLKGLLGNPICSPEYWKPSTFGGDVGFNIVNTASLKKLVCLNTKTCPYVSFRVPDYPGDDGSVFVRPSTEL

[5] = molecular target: T3, Equilibrative nucleoside transporter 1 (Homo sapiens, UniProt Q99808)
T3 sequence (Q99808 whole entry): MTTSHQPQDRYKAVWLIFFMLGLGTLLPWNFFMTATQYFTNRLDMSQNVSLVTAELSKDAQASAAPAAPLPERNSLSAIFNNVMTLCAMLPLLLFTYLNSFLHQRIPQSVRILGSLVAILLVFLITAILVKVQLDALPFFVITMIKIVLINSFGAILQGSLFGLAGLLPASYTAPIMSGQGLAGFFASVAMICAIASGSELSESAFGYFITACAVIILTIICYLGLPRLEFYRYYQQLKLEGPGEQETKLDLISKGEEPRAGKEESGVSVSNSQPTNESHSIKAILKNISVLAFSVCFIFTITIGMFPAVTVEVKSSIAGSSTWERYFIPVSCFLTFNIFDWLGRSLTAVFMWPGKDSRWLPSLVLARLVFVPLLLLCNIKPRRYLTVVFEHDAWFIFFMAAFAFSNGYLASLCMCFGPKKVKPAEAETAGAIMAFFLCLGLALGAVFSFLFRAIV

[6] = molecular target: 3',5'-cyclic-AMP phosphodiesterase 4D (Homo sapiens, UniProt Q08499); type: functional
[7] = molecular target: T4, Alpha-2C adrenergic receptor (Homo sapiens, UniProt P18825); type: functional
T4 sequence (P18825 whole entry): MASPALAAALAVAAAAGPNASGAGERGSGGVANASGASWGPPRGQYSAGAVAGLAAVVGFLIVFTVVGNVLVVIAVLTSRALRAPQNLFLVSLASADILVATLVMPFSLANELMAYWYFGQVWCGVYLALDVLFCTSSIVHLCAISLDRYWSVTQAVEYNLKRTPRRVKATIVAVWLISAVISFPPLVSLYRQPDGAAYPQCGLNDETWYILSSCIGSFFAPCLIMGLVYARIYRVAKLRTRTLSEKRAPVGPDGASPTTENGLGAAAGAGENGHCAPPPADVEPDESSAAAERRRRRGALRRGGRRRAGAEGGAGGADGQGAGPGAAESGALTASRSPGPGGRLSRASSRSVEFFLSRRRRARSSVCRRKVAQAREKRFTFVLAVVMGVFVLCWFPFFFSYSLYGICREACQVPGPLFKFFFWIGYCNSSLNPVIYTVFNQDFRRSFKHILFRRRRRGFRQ

Measured: AC50
Note: assay procedure not described here.

Sequence of Delta-type opioid receptor (P41143 whole entry): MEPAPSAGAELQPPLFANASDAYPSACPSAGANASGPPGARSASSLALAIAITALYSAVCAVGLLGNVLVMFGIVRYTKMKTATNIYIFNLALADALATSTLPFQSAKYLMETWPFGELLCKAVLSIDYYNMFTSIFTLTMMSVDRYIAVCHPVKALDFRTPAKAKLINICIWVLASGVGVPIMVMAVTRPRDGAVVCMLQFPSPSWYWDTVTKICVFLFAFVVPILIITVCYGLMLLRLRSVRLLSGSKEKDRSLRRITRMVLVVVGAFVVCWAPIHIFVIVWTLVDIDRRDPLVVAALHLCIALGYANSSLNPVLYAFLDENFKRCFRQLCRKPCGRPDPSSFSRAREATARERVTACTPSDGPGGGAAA
Sequence of Beta-2 adrenergic receptor (P07550 whole entry): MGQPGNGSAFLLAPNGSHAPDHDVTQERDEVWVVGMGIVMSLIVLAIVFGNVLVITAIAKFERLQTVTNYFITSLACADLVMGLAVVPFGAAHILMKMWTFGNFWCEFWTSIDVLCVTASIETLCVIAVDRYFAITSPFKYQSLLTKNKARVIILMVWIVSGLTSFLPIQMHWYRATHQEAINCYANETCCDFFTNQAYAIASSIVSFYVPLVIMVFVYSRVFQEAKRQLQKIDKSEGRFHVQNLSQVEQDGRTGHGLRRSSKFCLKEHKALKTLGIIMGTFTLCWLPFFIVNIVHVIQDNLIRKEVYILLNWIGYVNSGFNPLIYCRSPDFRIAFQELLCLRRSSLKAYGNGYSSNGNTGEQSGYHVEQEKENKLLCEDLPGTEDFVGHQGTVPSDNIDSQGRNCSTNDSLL
Sequence of 3',5'-cyclic-AMP phosphodiesterase 4D (Q08499 whole entry): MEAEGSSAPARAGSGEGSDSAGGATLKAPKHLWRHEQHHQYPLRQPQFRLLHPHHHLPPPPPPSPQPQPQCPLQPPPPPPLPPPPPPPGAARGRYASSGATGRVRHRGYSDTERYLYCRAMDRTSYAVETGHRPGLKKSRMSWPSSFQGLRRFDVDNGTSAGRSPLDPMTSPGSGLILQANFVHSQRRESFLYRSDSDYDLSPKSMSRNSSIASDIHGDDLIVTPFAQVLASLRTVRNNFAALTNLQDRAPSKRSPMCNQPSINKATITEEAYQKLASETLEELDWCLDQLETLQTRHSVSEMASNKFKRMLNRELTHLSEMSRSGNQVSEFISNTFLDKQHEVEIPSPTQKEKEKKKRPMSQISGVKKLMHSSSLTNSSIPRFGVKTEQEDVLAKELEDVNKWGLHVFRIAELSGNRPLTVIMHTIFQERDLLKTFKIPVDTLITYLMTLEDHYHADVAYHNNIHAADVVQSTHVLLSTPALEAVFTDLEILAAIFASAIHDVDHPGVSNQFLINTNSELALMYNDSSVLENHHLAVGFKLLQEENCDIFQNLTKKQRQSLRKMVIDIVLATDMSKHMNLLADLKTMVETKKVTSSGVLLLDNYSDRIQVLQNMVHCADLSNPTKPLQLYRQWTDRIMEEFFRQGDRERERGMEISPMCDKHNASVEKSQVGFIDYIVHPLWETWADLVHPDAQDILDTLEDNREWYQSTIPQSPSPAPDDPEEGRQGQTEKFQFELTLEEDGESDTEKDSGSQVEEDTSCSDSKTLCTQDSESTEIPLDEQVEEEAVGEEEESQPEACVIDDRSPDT

Oc1cc(O)c(Cl)cn1
> 30 µM: all assays above

CC(C)N(CCCCOCC(=O)O)c1cnc(-c2ccccc2)c(-c2ccccc2)n1
14.3 µM: [6]
> 30 µM: all other assays above

C[N+]12CCC(CC1)C(OC(=O)C(O)(c1ccccc1)c1ccccc1)C2 (configuration not stated)
not listed: [5]
> 30 µM: all other assays above

CC(=O)c1ccc(S(=O)(=O)NC(=O)NC2CCCCC2)cc1 [ACETOHEXAMIDE]
> 30 µM: [3] | [6]
> 10 µM: all other assays above

COc1cc(C)c(/C=C/C(C)=C/C=C/C(C)=C/C(=O)O)c(C)c1C [ACITRETIN]
> 30 µM: [3] | [6]
0.517 µM: [4]
> 10 µM: all other assays above

CCC1(CCC(C)C)C(=O)NC(=O)NC1=O [AMOBARBITAL]
> 30 µM: [3] | [6]
> 10 µM: all other assays above

COc1ccc(C2C(=O)c3ccccc3C2=O)cc1 [ANISINDIONE]
> 30 µM: [3] | [6]
13 µM: [4]
> 10 µM: all other assays above

Cc1cc(=O)n(-c2ccccc2)n1C [ANTIPYRINE]
> 10 µM: [1] | [2] | [7]
> 30 µM: all other assays above

O=C(CCCN1CCC(O)(c2ccc(Br)cc2)CC1)c1ccc(F)cc1 [BROMPERIDOL]
not listed: [7]
> 30 µM: all other assays above

CO/N=C(\C(=O)N[C@@H]1C(=O)N2C(C(=O)O)=CCS[C@H]12)c1csc(N)n1 [CEFTIZOXIME]
not listed: [1] | [3]
> 30 µM: all other assays above

CO/N=C(\C(=O)N[C@@H]1C(=O)N2C(C(=O)O)=C(CSc3nc(=O)c(=O)[nH]n3C)CS[C@H]12)c1csc(N)n1 [CEFTRIAXONE]
not listed: [1]
> 30 µM: all other assays above

COc1cc(N)c(Cl)cc1C(=O)NC1CCN(CCCOc2ccc(F)cc2)CC1OC (configuration not stated) [CISAPRIDE]
> 10 µM: [1] | [2] | [3]
> 30 µM: [4] | [5] | [6]

CC(C)NC[C@H](O)COc1ccc(CC(N)=O)cc1 [ESATENOLOL]
> 10 µM: [3] | [6] | [7]
> 30 µM: [4] | [5]

CN1CCN=C(c2ccccc2)c2cc(Cl)ccc21 [MEDAZEPAM]
5.2 µM: [6]
16 µM: [4]
not listed: [5]
> 30 µM: all other assays above

O=C(NCCO[N+](=O)[O-])c1cccnc1 [NICORANDIL]
not listed: [1]
> 30 µM: all other assays above

CO[C@H]1C[C@H](O[C@H]2CC[C@@]3(C)[C@H](CC[C@@H]4[C@@H]3CC[C@]3(C)[C@@H](C5=CC(=O)OC5)[C@@H](OC(C)=O)C[C@]43O)C2)O[C@@H](C)[C@@H]1O [OLEANDRIN]
> 30 µM: [2] | [3] | [6] | [7]

O=c1[nH]c2ccccc2n1CCCN1CCN(C(c2ccccc2)c2ccccc2)CC1 [OXATOMIDE]
0.89 µM: [7]
> 30 µM: [2] | [3] | [4] | [6]

C[C@]12C/C(=C/O)C(=O)C[C@@H]1CC[C@@H]1[C@@H]2CC[C@@]2(C)[C@H]1CC[C@]2(C)O [OXYMETHOLONE]
19 µM: [4]
not listed: [5]
> 30 µM: all other assays above

COc1cc2[nH]c(C)c(CCN3CCN(c4ccccc4)CC3)c2cc1OC [OXYPERTINE]
9.8 µM: [6]
1.4 µM: [7]
not listed: [1]
> 30 µM: all other assays above

Fc1ccc([C@@H]2CCNC[C@H]2COc2ccc3c(c2)OCO3)cc1 [PAROXETINE]
7.8 µM: [7]
> 30 µM: [4] | [5] | [6]
0.83 µM: [3]
9.5 µM: [1]

c1ccc(C2(N3CCCCC3)CCCCC2)cc1 [PHENCYCLIDINE]
not listed: [1]
> 30 µM: all other assays above

COc1cc(C(=O)OCc2cccc(COC(=O)c3cc(OC)c(OC)c(OC)c3)n2)cc(OC)c1OC [PIROZADIL]
not listed: [1]
> 30 µM: all other assays above

O=c1c(O)c(-c2ccc(O)c(O)c2)oc2cc(O)cc(O)c12 [QUERCETIN]
> 10 µM: [2] | [6] | [7]
> 30 µM: [3] | [4] | [5]

CCN1CCCC1CNC(=O)c1cc(S(=O)(=O)CC)ccc1OC (configuration not stated) [SULTOPRIDE]
4.5 µM: [7]
not listed: [5]
> 30 µM: all other assays above

C=CCN1CCc2nc(N)sc2CC1 [TALIPEXOLE]
0.71 µM: [7]
not listed: [1]
> 30 µM: all other assays above

CCOC(=O)[C@@H](N)Cc1ccc(-c2cc(O[C@H](c3ccc(Cl)cc3-n3ccc(C)n3)C(F)(F)F)nc(N)n2)cc1 [TELOTRISTAT ETHYL]
5 µM: [6]
22 µM: [7]
not listed: [1]
> 30 µM: all other assays above

CC(C)(C)NCC(O)c1ccccc1Cl (configuration not stated) [TULOBUTEROL]
not listed: [1] | [5]
> 30 µM: all other assays above

CCCCCCCC(=O)CC[C@@H]1[C@@H](C/C=C\CCCC(=O)OC(C)C)[C@@H](O)C[C@H]1O [UNOPROSTONE ISOPROPYL]
9.6 µM: [6]
13 µM: [7]
> 30 µM: [3] | [4]
